Data on four molecules can be found in patent US8618094B2, “Fused substituted aminopyrrolidine derivative” (Daiichi Sankyo Company, Limited, priority 2007, dated 2013).

Values after ≈ are worked out from the molar mass of the structure shown. Bounds are passed on as bounds.

What all share (test): Antibacterial activity (MIC), standard method of the Japanese Society of Chemotherapy
Holding throughout (assay type): cell-based

For one assay, the system named is K. pneumoniae TYPE 1. The conditions noted are these: Klebsiella pneumoniae, TYPE1. The protocol: (§1) Antibacterial activity of the compounds of the present invention was measured in accordance with the standard method specified by the Japanese Society of Chemotherapy.
Another assay has as its system E. coli NIHJ. The conditions noted are these: Escherichia coli. The procedure:
as §1

The next assay has as its system S. aureus FDA 209-P. The conditions noted are these: Staphylococcus aureus, FDA209. The protocol:
as §1

A further assay concerns P. aeruginosa PAO1. The conditions noted are these: Pseudomonas aeruginosa. The protocol:
as §1

Another assay concerns E. cloacae 03400. The conditions noted are these: Enterobacter cloacae. The procedure:
as §1

The next assay relates to S. epidermidis 56500. The conditions noted are these: Staphylococcus epidermidis. The protocol:
as §1

The test system of the next assay is E. faecalis 19433. The settings on record: Enterococcus faecalis. The procedure:
as §1

In a further assay the test system is S. aureus 870307. The conditions noted are these: Staphylococcus aureus. The procedure: as §1
The test system of another assay is S. marcescens 10100. The settings on record: Serratia marcescens. The protocol:
as §1

Assay [1] has as its system S. pyogenes JCM5674(ATCC12344). The settings on record: Streptococcus pyogenes. The procedure: as §1
Another assay relates to H. influenzae ATCC49247. The settings on record: Haemophilus influenzae; H. influenzae ATCC49247 (first half of Table 2); read-out: MIC, H. influenzae ATCC49247. The protocol: as §1
The subject of a further assay is P. mirabilis 08103. The settings on record: Proteus mirabilis. The protocol:
as §1

The subject of another assay is S. pneumoniae 104835. The conditions noted are these: Streptococcus pneumoniae. The protocol:
as §1

Assay [2] has as its system M(B). Caterrhalis ATCC25238. The conditions noted are these: M(B). Caterrhalis ATCC25238 (first half of Table 2); read-out: MIC, M(B). Caterrhalis ATCC25238. The procedure:
as §1

A further assay has as its system S. pneumoniae J24. The conditions noted are these: Streptococcus pneumoniae. The protocol:
as §1

As for `COc1c(N2CC3(N)CCC4CC43C2)c(F)cc2c(=O)c(C(=O)O)cn([C@@H]3C[C@@H]3F)c12` (single isomer, unassigned) [Example 27], the MIC turned out to be 0.1 µg/mL (≈ 0.232 µM) in the assay on K. pneumoniae TYPE 1; 0.012 µg/mL (≈ 0.0278 µM) in the assay with E. coli NIHJ; 12 ng/mL (≈ 0.0278 µM) in the assay with S. aureus FDA 209-P; 0.78 µg/mL (≈ 1.81 µM) with P. aeruginosa PAO1; 0.025 µg/mL (≈ 0.0579 µM) in the assay on E. cloacae 03400; 0.05 µg/mL (≈ 0.116 µM) in the assay on S. epidermidis 56500. Further, the MIC was found to be 0.1 µg/mL (≈ 0.232 µM) against E. faecalis 19433; 0.2 µg/mL (≈ 0.464 µM) against S. aureus 870307; 0.2 µg/mL (≈ 0.464 µM) with S. marcescens 10100; 0.05 µg/mL (≈ 0.116 µM) in assay [1]; 6 ng/mL (≈ 0.0139 µM) in the assay with H. influenzae ATCC49247; 0.05 µg/mL (≈ 0.116 µM) in the assay on P. mirabilis 08103. Also, the MIC stood at 0.2 µg/mL (≈ 0.464 µM) against S. pneumoniae 104835, 0.05 µg/mL (≈ 0.116 µM) in assay [2] and 0.025 µg/mL (≈ 0.0579 µM) with S. pneumoniae J24.
`COc1c(N2C[C@H]3[C@@H](C)C[C@@]3(N)C2)c(F)cc2c(=O)c(C(=O)O)cn([C@@H]3C[C@@H]3F)c12` [Example 2, 7-{(1S,5R,6S)-1-Amino-6-methyl-3-azabicyclo[3.2.0]hept-3-yl}-6-fluoro-1-[(1R,2S)-2-fluorocyclopropyl]-1,4-dihydro-8-methoxy-4-oxoquinoline-3-carboxylic acid]: the MIC in the assay on K. pneumoniae TYPE 1 is 0.1 µg/mL (≈ 0.238 µM); against E. coli NIHJ it was 0.025 µg/mL (≈ 0.0596 µM); in the assay on S. aureus FDA 209-P, at most 3 ng/mL; in the assay with P. aeruginosa PAO1 it was 0.78 µg/mL (≈ 1.86 µM); against E. cloacae 03400, 0.025 µg/mL (≈ 0.0596 µM); with S. epidermidis 56500 it was 0.012 µg/mL (≈ 0.0286 µM). For the same molecule, the MIC in the assay on E. faecalis 19433 worked out at 0.05 µg/mL (≈ 0.119 µM); against S. aureus 870307, 0.1 µg/mL (≈ 0.238 µM); against S. marcescens 10100, 0.2 µg/mL (≈ 0.477 µM); in [1] it was 0.025 µg/mL (≈ 0.0596 µM); with H. influenzae ATCC49247, 6 ng/mL (≈ 0.0143 µM); against P. mirabilis 08103, 0.012 µg/mL (≈ 0.0286 µM). Also, the MIC with S. pneumoniae 104835 came to 0.1 µg/mL (≈ 0.238 µM); in [2], 0.025 µg/mL (≈ 0.0596 µM); in the assay with S. pneumoniae J24, 0.012 µg/mL (≈ 0.0286 µM).
Consider `COc1c(N2C[C@H]3[C@H](C)C[C@@]3(N)C2)c(F)cc2c(=O)c(C(=O)O)cn([C@@H]3C[C@@H]3F)c12` [Example 5, 7-{(1S,5R,6R)-1-Amino-6-methyl-3-azabicyclo[3.2.0]hept-3-yl}-6-fluoro-1-[(1R,2S)-2-fluorocyclopropyl]-1,4-dihydro-8-methoxy-4-oxoquinoline-3-carboxylic acid], for which the MIC worked out at 0.1 µg/mL (≈ 0.238 µM) in the assay with K. pneumoniae TYPE 1; 0.025 µg/mL (≈ 0.0596 µM) against E. coli NIHJ; 6 ng/mL (≈ 0.0143 µM) in the assay with S. aureus FDA 209-P; 0.78 µg/mL (≈ 1.86 µM) against P. aeruginosa PAO1; 0.025 µg/mL (≈ 0.0596 µM) in the assay on E. cloacae 03400; 0.025 µg/mL (≈ 0.0596 µM) in the assay with S. epidermidis 56500. Besides, the MIC in the assay with E. faecalis 19433 is 0.1 µg/mL (≈ 0.238 µM); in the assay with S. aureus 870307, 0.2 µg/mL (≈ 0.477 µM); in the assay on S. marcescens 10100, 0.2 µg/mL (≈ 0.477 µM); in assay [1], 0.05 µg/mL (≈ 0.119 µM); with H. influenzae ATCC49247, 12 ng/mL (≈ 0.0286 µM); in the assay on P. mirabilis 08103, 0.025 µg/mL (≈ 0.0596 µM). Also, the MIC in the assay on S. pneumoniae 104835 was determined as 0.2 µg/mL (≈ 0.477 µM); in assay [2], 0.05 µg/mL (≈ 0.119 µM); against S. pneumoniae J24, 0.025 µg/mL (≈ 0.0596 µM).
As to `Cc1c(N2C[C@]3(N)CCC[C@]3(F)C2)c(F)cc2c(=O)c(C(=O)O)cn([C@@H]3C[C@@H]3F)c12` [Example 17, 7-[(1R,5S)-1-Amino-5-fluoro-3-azabicyclo[3.3.0]octan-3-yl]-6-fluoro-1-[(1R,2S)-2-fluorocyclopropane]-1,4-dihydro-8-methyl-4-oxoquinoline-3-carboxylic acid], the MIC against K. pneumoniae TYPE 1 is 0.012 µg/mL (≈ 0.0285 µM); in the assay with E. coli NIHJ it was at most 0.003 µg/mL; against S. aureus FDA 209-P it was 6 ng/mL (≈ 0.0142 µM); against P. aeruginosa PAO1, 0.2 µg/mL (≈ 0.475 µM); in the assay on E. cloacae 03400, 0.006 µg/mL (≈ 0.0142 µM); against S. epidermidis 56500, 0.025 µg/mL (≈ 0.0593 µM). For the same molecule, the MIC was 0.05 µg/mL (≈ 0.119 µM) in the assay on E. faecalis 19433; 0.2 µg/mL (≈ 0.475 µM) against S. aureus 870307; 0.05 µg/mL (≈ 0.119 µM) against S. marcescens 10100; 0.025 µg/mL (≈ 0.0593 µM) in [1]; at most 3 ng/mL in the assay with H. influenzae ATCC49247; 0.006 µg/mL (≈ 0.0142 µM) against P. mirabilis 08103. Besides, the results for the MIC (with S. pneumoniae 104835; in [2]; against S. pneumoniae J24) were 0.1 µg/mL (≈ 0.237 µM), 0.006 µg/mL (≈ 0.0142 µM) and 0.025 µg/mL (≈ 0.0593 µM), respectively.
